Laboratory results as given in patent US6114373A, “N-acetyl-5,6-dimethoxytryptamine and its free radical scavenging activity” (priority 1998, dated 2000).
Entries after “also recorded” stand apart in the source; their conditions may differ.

Experiments:
[1] = Hydroxyl radical scavenging: DMPO-HO. adduct formation (H2O2 + UV) measured by HPLC-EC; assay type: biochemical
From the text: The hydroxyl radical (HO^.cndot.) is the most reactive and cytotoxic species among free radicals. […] Because of its high reactivity, HO^.cndot. once formed either in vitro or in vivo lasts for a very short time (half life about 10^-9 s) and, therefore, HO^.cndot. cannot be measured directly. However, by using a spin trapping agent, in this case 5,5-dimethylpyrroline-N-oxide (DMPO), an adduct (DMPO-HO^.cndot.) is formed between the spin trapping agent and the HO^.cndot.. The adducts have a longer half life and therefore they can be more readily quantified.
When DMPO is incubated in this system the DMPO will traps the HO^.cndot. to form a relatively stable DMPO- HO^.cndot. adduct.
HO^.cndot. +DMPO→DMPO-HO^.cndot.
In the present study, the DMPO-HO^.cndot. adduct was detected by an electro-chemical (EC) detector attached to a high performance liquid chromatography (HPLC) system. […] The applied potential was 1.0 volt and volume of the injected sample was 20 μl.

[2] = test system: KA-induced neurobehavioral activities and death in mice; assay: Neurobehavioral activities and death induced by kainic acid in mice; assay type: in vivo, mice (male CD2-FI); conditions: for Incidence, Seizures / Incidence, Tail arch / Incidence, Tremors / Incidence, Death (death rate): KA 40 mg/kg s.c., compound I or melatonin 5 mg/kg i.p. 10 min before KA, n=15; for Incidence, Seizures / Incidence, Tail arch / Incidence, Tremors: 4 h observation
Experimental: (§1) Kainic acid (KA) was employed to test the in vivo free radical scavenging and antioxidant activities of compound I. KA is an excitatory neurotoxin which destroys neuronal cells by free radical generation (Coyle and Schwarcz, Nature 263: 244-246 1976). Male CD2-FI mice (26-30 g) were chosen as the experimental subject. The mice were housed in windowless room with automatically regulated temperature 22±2° C. and 14 h light/10 h dark cycle. The mice received standard laboratory chow and water ad libitum. The mice were randomized into 4 groups.
Immediately following the injections, neurobehavioral changes were monitored. The observation period extended for 4 hours following the injections. The death rate at 48 hours was recorded. […] By contrast, all of the mice that received KA developed some neurobehavioral changes including arching of tail, tremors and seizures. The death rate in this group was 33%. […] Tremors and seizures decreased from 100% in the KA-treated mice to 40% (p=0.001), respectively,and the death rate was reduced to 20%.

[3] = test system: brain lipid proxidation (MDA+4-HDA) in cerebral cortex; assay: Brain oxidative damage test: lipid peroxidation product (LPO; MDA+4-HDA) in cerebral cortex of KA-treated mice; assay type: in vivo, mice (male CD2-FI); conditions: for level of LPO in brain (in words): KA 40 mg/kg s.c. plus compound I or melatonin 5 mg/kg i.p., 48 h, FIG. 5
Experimental: as §1
Forty-eight hours after treatment, 5 mice of each group were sacrificed and the cerebral cortex was excised and immediately placed on dry ice and stored at -80° C. for the lipid prooxidation product (LPO) assay. LPO is the most commonly used index of free radical damage and the assay used to measure the level of LPO is described in a kit avaliable from Calbiochem (LA Jolla, Calif.). LPO was expressed as malondialdehyde (MDA) and 4-hydroxyalkenals (4-HDA)/mg protein. The level of LPO in the cerebral cortex of mice in the control group was 3.47=0.18 nmol/mg protein; in KA injected mice the level of LPO was increased to 4.42=0.11 nmol/mg protein. This increase, when compared to the control mice, was great than 27% (p<0.05).

[4] = test system: pyramidal neurons in the hippocampal CA3 area; assay: Morphological observations of hippocampus of KA-treated mice (light microscopy); assay type: in vivo, mice (male CD2-FI); conditions: seven days following treatment; KA 40 mg/kg s.c. with or without 5 mg/kg compound I or melatonin; hematoxylin and eosin
Experimental: as §1
Seven days following the treatment, representive mice in each of the groups mentioned above were sacrificed. The brains were immersed in normal fixation buffer. The hippocampi and surrounding tissue were dissected from the whole brain, cut and stained with hematoxylin and eosin. The morphological assessment of neuronal damage was determined by using light microscopy. In the brains of control mice no visible neuronal damage was observed. […] The induced neuronal damage was concentrated in the hippocampal CA3 area. The total histological architecture of CA3 area was altered. Virtually all of the pyrimadal neurons in this area were destroyed. The cell membranes appeared to have disintegrated and the nuclei of the cells were condensed and pyknotic. These changes are consistent with cell death. […] Few damaged neurons were observed microcopically in this area in these two groups (FIG. 6).

[5] = background statement; cited from earlier work
[6] = test system: experimental animal life span; conditions: Pierpaoli and Regelson, Proc. Natl. Acad. Sci. USA 91: 787-791 1994; up to; cited from earlier work

COc1cc2[nH]cc(CCNC(C)=O)c2cc1OC [Compound I, N-acetyl-5,6-dimethoxytryptamine]
suppression of DMPO-HO. adduct formation (in words) ([1]; compared with melatonin, FIG. 3, dose-response, FIG. 4): efficacy is greater than that of melatonin | IC50 ([1]; read-out: IC50 (concentration required to produce 50% inhibition of the DMPO-HO. formation), H2O2 + UV (254 nm), DMPO spin trap, HPLC-EC): 15 µM | Incidence, Seizures [2]: 20% | Incidence, Tail arch [2]: 40% | Incidence, Tremors [2]: 40% | Death (in words) ([2]; at 48 hours, KA 40 mg/kg s.c. plus compound I 5 mg/kg i.p.): none of them died | Incidence, Death (death rate) ([2]; at 48 hours): 0% | level of LPO in brain (in words) [3]: reduced to control levels | morphological assessment of neuronal damage, hippocampal CA3 area [4]: No obviously neuronal damage is observed; also recorded: the hippocampal CA3 area of the brain was still intact

C=C(C)[C@H]1CN[C@H](C(=O)O)[C@H]1CC(=O)O [KA]
Incidence, Seizures [2]: 100% | Incidence, Tail arch [2]: 86% | Incidence, Tremors [2]: 100% | Incidence, Death (death rate) ([2]; at 48 hours): 33% | increase of LPO level compared to control mice ([3]; 48 h after KA 40 mg/kg s.c., p<0.05): > 27% | morphological assessment of neuronal damage, hippocampal CA3 area [4]: The morphological architecture of neurons in the hippocampal CA3 region were destroyed; also recorded: the pyramidal neurons of the hippocampus were severely damaged

COc1ccc2[nH]cc(CCNC(C)=O)c2c1 [melatonin]
Incidence, Seizures [2]: 40% | Incidence, Tail arch [2]: 33% | Incidence, Tremors [2]: 40% | Incidence, Death (death rate) ([2]; at 48 hours): 20% | level of LPO in brain (in words) [3]: reduced to control levels | morphological assessment of neuronal damage, hippocampal CA3 area [4]: No obviously neuronal damage is observed; also recorded: the hippocampal CA3 area of the brain was still intact | biological half life in the blood [5]: 20-40 min | prolongation of experimental animal life span [6]: up to 27%
